# Legend:
# human Y5 receptor = target: T1, human Y5 receptor (Homo sapiens, UniProt Q15761); test: Radioligand binding to cloned human Y5 receptor (125I-PYY); conditions: cloned human Y5, stably transfected cells, read-out: Binding Affinity (K1 (nM) vs. 125I-PYY) Human Receptor Y5
# T1 construct: expressed in transfected cells
# T1 sequence (Q15761 1-445): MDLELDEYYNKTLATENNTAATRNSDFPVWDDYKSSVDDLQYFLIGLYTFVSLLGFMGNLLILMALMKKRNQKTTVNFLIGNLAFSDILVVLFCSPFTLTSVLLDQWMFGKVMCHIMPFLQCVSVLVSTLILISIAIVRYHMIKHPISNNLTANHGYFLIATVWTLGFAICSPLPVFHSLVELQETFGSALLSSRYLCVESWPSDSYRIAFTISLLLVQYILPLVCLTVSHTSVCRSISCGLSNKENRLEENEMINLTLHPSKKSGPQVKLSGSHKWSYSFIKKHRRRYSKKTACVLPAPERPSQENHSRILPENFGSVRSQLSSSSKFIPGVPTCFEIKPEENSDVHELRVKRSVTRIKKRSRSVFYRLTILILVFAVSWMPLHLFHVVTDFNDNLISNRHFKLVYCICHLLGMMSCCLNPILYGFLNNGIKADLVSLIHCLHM
# Description: Membranes were harvested from COS-7 cells 48 hours after transient transfection. […] Large particles and debris were cleared by low speed centrifugation (200 x g, 5 min, 4° C.). […] Membranes were held on ice for up to one hour and used fresh, or flash-frozen and stored in liquid nitrogen.
# Incubations were terminated by filtration over Whatman GF/C filters (pre-coated with 1% polyethyleneimine and air-dried before use), followed by washing with 5 mL of ice-cold binding buffer.
# human α1d receptor = target: T2, human α1d receptor (Homo sapiens, UniProt P25100); test: Binding to cloned human α1d adrenergic receptor
# T2 construct: expressed in transfected cells
# T2 sequence (P25100 whole entry): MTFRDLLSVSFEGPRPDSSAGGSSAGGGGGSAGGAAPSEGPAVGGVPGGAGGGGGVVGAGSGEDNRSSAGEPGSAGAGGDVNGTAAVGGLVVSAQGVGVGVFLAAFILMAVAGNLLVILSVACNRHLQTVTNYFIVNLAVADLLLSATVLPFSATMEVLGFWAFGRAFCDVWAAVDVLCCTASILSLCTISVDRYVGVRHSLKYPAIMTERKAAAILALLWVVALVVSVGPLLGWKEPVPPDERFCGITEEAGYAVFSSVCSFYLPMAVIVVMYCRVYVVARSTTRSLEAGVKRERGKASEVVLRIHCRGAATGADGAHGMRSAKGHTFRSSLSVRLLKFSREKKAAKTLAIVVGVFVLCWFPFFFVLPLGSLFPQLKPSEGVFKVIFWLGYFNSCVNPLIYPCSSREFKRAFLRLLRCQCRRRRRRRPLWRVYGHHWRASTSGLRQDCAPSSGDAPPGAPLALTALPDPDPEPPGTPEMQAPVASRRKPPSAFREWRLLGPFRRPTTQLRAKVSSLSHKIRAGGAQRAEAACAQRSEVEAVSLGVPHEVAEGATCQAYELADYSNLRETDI
# Description: (§2) α1 Human Adrenergic Receptors: To determine the binding of compounds to human α1 receptors, LM(tk−) cell lines stably transfected with the genes encoding the α1a, α1b, and α1d receptors were used. The nomenclature describing the α1 receptors was changed recently, such that the receptor formerly designated α1a is now designated α1d, and the receptor formerly designated α1c is now designated α1a (ref).
# human α1b receptor = target: T3, human α1b receptor (Homo sapiens, UniProt P35368); test: Binding to cloned human α1b adrenergic receptor
# T3 construct: expressed in transfected cells
# T3 sequence (P35368 whole entry): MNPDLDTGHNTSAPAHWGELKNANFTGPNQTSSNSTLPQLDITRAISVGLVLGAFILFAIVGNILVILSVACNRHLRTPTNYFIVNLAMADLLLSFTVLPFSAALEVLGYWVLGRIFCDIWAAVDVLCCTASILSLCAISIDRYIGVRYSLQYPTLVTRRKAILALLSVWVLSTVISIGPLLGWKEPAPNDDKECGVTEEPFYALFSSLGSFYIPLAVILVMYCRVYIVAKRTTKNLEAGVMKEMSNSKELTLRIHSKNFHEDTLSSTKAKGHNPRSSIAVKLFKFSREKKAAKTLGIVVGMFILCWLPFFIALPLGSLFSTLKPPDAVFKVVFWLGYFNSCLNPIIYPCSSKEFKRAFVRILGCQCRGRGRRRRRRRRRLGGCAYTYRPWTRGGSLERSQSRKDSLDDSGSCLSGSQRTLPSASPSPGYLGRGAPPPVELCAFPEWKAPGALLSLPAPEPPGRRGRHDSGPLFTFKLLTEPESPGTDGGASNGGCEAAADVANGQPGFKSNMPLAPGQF
# Description: as §2
# human α2A receptor = target: T4, human α2A receptor (Homo sapiens, UniProt P08913); test: Binding to cloned human α2A adrenergic receptor ([3H]rauwolscine)
# T4 construct: expressed in transfected cells
# T4 sequence (P08913 whole entry): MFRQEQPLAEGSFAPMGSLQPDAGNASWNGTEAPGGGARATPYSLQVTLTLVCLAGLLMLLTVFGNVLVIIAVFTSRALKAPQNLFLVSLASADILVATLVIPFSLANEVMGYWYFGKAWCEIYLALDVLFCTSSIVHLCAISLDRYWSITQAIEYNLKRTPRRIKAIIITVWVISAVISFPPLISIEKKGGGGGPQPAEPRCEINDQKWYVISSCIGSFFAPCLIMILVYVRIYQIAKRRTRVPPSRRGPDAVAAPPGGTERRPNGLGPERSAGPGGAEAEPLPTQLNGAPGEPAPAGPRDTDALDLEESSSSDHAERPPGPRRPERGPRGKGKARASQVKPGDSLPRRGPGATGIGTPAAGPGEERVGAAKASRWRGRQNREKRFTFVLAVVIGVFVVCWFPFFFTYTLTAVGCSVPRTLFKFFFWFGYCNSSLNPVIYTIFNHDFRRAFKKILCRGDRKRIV
# Description: (§3) α2 Human Adrenergic Receptors: To determine the binding of compounds to human α2 receptors, LM(tk−) cell lines stably transfected with the genes encoding the α2A, α2B, and α2C receptors were used. […] Cell lysates were prepared as described below (see Radioligand Dinding to Membrane Suspensions), and suspended in 25 mM glycylglycine buffer (pH 7.6 at room temperature). Equilibrium competition binding assay were performed using [^3H]rauwolscine (0.5 nM), and nonspecific binding was determined by incubation with 10 μM phentolamine.
# human α2B receptor = target: T5, human α2B receptor (Homo sapiens, UniProt P18089); test: Binding to cloned human α2B adrenergic receptor ([3H]rauwolscine)
# T5 construct: expressed in transfected cells
# T5 sequence (P18089 whole entry): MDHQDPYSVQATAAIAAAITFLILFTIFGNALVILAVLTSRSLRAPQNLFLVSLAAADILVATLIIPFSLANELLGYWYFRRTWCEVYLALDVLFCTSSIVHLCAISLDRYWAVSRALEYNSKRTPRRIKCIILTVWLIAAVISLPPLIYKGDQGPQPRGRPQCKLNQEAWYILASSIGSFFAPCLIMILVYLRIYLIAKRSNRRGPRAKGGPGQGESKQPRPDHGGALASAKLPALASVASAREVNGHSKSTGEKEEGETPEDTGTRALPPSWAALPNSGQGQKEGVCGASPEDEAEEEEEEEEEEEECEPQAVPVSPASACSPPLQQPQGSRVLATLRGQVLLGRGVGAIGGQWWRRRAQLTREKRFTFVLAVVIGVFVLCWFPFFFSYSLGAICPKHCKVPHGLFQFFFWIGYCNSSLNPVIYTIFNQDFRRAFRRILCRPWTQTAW
# Description: as §3
# [1] = target: T6, human dopamine D3 receptor (Homo sapiens, UniProt P35462); test: Binding to human dopamine D3 receptor ([3H]spiperone); conditions: cloned human receptor
# T6 construct: expressed in transfected cells; host or cells: COS-7 cells, transient
# T6 sequence (P35462 whole entry): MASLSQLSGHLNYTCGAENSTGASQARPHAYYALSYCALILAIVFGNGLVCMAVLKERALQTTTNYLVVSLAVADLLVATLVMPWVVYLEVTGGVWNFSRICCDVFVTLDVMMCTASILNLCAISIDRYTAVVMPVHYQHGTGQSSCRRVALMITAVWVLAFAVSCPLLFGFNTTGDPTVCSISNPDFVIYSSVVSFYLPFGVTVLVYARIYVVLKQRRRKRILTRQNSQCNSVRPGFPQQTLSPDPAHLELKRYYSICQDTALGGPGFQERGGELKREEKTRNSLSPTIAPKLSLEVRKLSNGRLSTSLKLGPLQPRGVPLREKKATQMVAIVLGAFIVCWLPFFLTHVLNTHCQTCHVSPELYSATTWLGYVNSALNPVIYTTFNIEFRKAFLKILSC
# human 5HT2 receptor = target: T7, human 5HT2 receptor (Homo sapiens, UniProt P28223); test: Binding to human 5HT2 receptor ([3H]ketanserin); conditions: cloned human receptor
# T7 construct: expressed in transfected cells; host or cells: COS-7 cells (DEAE-dextran); the same paragraph also names the deposited line L-NGC-5HT2 (ATCC CRL 10287)
# T7 sequence (P28223 whole entry): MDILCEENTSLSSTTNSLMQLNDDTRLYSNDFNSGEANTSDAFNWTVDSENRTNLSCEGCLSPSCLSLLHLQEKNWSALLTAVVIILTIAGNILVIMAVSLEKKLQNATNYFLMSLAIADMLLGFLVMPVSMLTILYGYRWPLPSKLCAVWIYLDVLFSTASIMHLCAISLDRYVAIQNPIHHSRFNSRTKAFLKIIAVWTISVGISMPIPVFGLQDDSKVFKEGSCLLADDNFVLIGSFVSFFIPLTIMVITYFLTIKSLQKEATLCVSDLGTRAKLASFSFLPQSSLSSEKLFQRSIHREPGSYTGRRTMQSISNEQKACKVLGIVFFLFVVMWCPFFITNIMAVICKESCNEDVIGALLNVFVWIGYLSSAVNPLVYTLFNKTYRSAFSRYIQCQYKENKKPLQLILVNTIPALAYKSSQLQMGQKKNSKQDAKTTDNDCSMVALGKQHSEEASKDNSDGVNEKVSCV
# Description: Human 5HT2 Receptor: The coding sequence of the human 5HT2 receptor was obtained from a human brain cortex cDNA library, and cloned into the cloning site of pCEXV-3 eukaryotic expression vector. […] The pellet was suspended in 50 mM Tris-HCl buffer (pH 7.7 at room temperature) containing 10 mM MgSO4, 0.5mM EDTA, and 0.1% ascorbate. […] Nonspecific binding was defined by the addition of 10 μM mianserin.
# human 5HT7 receptor = target: T8, human 5HT7 receptor (Homo sapiens, UniProt P34969); test: Binding to human 5HT7 receptor; conditions: cloned human receptor
# T8 construct: expressed in transfected cells
# T8 sequence (P34969 whole entry): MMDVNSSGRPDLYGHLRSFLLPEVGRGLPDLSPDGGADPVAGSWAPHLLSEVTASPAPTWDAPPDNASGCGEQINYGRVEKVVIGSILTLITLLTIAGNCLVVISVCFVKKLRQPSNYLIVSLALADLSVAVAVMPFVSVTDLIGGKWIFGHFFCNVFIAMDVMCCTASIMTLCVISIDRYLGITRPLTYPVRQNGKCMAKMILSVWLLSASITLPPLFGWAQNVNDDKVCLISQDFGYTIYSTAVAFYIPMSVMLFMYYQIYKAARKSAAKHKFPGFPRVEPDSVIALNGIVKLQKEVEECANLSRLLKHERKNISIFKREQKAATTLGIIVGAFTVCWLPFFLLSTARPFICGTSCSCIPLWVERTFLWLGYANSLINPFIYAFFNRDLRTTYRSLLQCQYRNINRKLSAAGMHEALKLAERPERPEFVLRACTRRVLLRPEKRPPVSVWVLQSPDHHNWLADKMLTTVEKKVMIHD
# Description: Human 5-ET7 Receptor: A LM(tk−) clonal cell line stably transfected with the gene encoding the 5HT7 receptor subtype was prepared as described above.
# human 5HT1F receptor = target: T9, human 5HT1F receptor (Homo sapiens, UniProt P30939); test: Binding to human 5HT1F receptor ([3H]serotonin); conditions: cloned human receptor
# T9 construct: expressed in transfected cells
# T9 sequence (P30939 1-366): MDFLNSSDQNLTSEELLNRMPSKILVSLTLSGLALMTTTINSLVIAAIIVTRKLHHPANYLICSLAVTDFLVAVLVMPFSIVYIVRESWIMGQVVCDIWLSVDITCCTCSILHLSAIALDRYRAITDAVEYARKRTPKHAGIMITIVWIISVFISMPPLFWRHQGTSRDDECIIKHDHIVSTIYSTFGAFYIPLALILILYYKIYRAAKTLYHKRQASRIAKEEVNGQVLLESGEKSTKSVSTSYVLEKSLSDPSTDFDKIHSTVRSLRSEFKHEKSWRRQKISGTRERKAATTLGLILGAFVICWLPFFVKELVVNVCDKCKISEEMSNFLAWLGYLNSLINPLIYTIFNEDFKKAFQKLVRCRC
# Description: (§1) 5HT1Dα, 5HT1Dβ, 5HT1E, 5HT1F Receptors: LM(tk−) clonal cell lines stably transfected with the genes encoding each of these 5HT receptor subtypes were prepared as described above. The cell line for the 5HT1Dα, receptor, designated as Ltk−8-30-84, was deposited on Apr. 17, 1990, and accorded ATCC Accession No. CRL 10421. The cell for the 5HT1Dβ receptor, designated as Ltk−11, was deposited on Apr. 17, 1990, and accorded ATCC Accession No. CRL 10422. The cell line for the 5HT1E receptor, designated 5 HT1E-7, was deposited on Nov. 6, 1991, and accorded ATCC Accession No. CRL 10913. The cell line for the 5HT1F receptor, designated L-5-HT1F, was deposited on Dec. 27, 1991, and accorded ATCC Accession No. ATCC 10957. Membrane preparations comprising these receptors were prepared as described below, and suspended in 50 mM Tris-HCl buffer (pH 7.4 at 37° C.) containing 10 mM MgCl2, 0.2 mM EDTA, 10 μM pargyline, and 0.1% ascorbate. The binding of compounds was determined in competition binding assays by incubation for 30 minutes at 37° C. in the presence of 5 nM [^3H) serotonin. Nonspecific binding was determined in the presence of 10 μM serotonin. The bound radioligand was separated by filtration through GF/B filters using a cell harvester.
# human 5HT1E receptor = target: T10, human 5HT1E receptor (Homo sapiens, UniProt P28566); test: Binding to human 5HT1E receptor ([3H]serotonin); conditions: cloned human receptor
# T10 construct: expressed in transfected cells
# T10 sequence (P28566 whole entry): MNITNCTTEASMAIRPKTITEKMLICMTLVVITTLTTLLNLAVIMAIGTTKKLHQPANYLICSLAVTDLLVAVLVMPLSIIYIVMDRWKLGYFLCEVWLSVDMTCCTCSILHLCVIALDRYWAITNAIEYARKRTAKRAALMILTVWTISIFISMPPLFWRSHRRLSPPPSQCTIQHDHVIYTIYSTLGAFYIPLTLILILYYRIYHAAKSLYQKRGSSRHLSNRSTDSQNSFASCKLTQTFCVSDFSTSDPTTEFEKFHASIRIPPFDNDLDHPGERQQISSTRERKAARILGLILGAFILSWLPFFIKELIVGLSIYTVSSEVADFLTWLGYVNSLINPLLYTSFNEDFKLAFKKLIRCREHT
# Description: as §1
# human 5HT1Dα receptor = target: T11, human 5HT1Dα receptor (Homo sapiens, UniProt P28221); test: Binding to human 5HT1Dα receptor ([3H]serotonin); conditions: cloned human receptor
# T11 construct: expressed in transfected cells
# T11 sequence (P28221 whole entry): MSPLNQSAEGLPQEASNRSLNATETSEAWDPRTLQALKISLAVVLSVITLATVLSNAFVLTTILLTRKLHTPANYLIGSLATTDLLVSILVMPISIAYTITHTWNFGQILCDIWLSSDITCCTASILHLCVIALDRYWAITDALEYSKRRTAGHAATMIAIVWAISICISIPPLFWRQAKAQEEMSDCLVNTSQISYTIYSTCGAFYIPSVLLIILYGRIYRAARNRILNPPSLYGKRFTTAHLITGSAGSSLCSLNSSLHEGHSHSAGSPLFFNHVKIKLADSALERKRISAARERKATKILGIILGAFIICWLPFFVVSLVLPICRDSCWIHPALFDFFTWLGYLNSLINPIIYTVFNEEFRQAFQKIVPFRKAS
# Description: 5HT1Dα, 5HT1Dβ, 5HT1E, 5HT1F Receptors: LM(tk−) clonal cell lines stably transfected with the genes encoding each of these 5HT receptor subtypes were prepared as described above. […] Membrane preparations comprising these receptors were prepared as described below, and suspended in 50 mM Tris-HCl buffer (pH 7.4 at 37° C.) containing 10 mM MgCl2, 0.2 mM EDTA, 10 μM pargyline, and 0.1% ascorbate. The binding of compounds was determined in competition binding assays by incubation for 30 minutes at 37° C. in the presence of 5 nM [^3H) serotonin. Nonspecific binding was determined in the presence of 10 μM serotonin.
Structure (SMILES),Ki (human Y5 receptor),Receptor (pKi) α1d (human α1d receptor),Receptor (pKi) α1b (human α1b receptor),Receptor (pKi) α2a (human α2A receptor),Receptor (pKi) α2b (human α2B receptor),Receptor (pKi) D3 [1],Receptor (pKi) 5HT2 (human 5HT2 receptor),Receptor (pKi) 5HT7 (human 5HT7 receptor),Receptor (pKi) 5HT1F (human 5HT1F receptor),Receptor (pKi) 5HT1E (human 5HT1E receptor),Receptor (pKi) 5HT1Dα (human 5HT1Dα receptor)
Cl.O=[N+]([O-])c1ccccc1S(=O)(=O)NCC1CCC(CNCC2CCc3ccccc3C2)CC1 (stereo not shown) [Example 36],8.3 nM,7.01,7.22,7.31,6.96,6.35,5.93,6.37,≤ 5.30,≤ 5.30,5.94
Cl.O=S(=O)(NCC1CCC(CNCC2CCc3ccccc3C2)CC1)c1cccc2ccccc12 (stereo not shown) [Example 32],11 nM,6.90,7.35,6.74,6.58,6.69,6.55,6.42,≤ 5.30,≤ 5.30,6.04
